These results are taken from patent publication US11913884B2, “Visible light-activated dyes and methods of use thereof” (William Marsh Rice University, priority 2019, dated 2024).

Data set [1] can be described thus: UV-vis absorption and fluorescence spectra of thio-caged and uncaged fluorophores. The data set is classed as physicochemical. As to conditions: DMSO (50 μM). How it is done: Encouraged by the excellent photoactivation properties of SNile Red, Lawesson's reagent was employed to introduce thiocarbonyl moieties into several different fluorophores, such as phthalimide (PI), coumarin (Cou) and acridone (ACD), obtaining yields ranging from 20-80% (FIG. 1). Next, characterization of the spectroscopic and photochemical properties of these thiocaged fluorophores and their oxidized products using UV-vis and fluorescence spectroscopies was performed (Table 1). […] Double thiocarbonyl substitution on 4-dimethylaminophthalimide (4-DMAP, FIG. 1) produced an even larger bathochromic shift of 166 nm. […] It was hypothesized that the red-shift and enhanced absorption seen with thiocarbonyl compounds were due to the reduced energy gap between the HOMO-LUMO in these fluorophores. This is consistent with the computational results discussed below. […] To assess the efficiency of photoactivation for the various thio-caged fluorophores, UV-vis and fluorescence spectra were recorded after different irradiation times (FIGS. 4-8).
(§1) The ^1H NMR spectroscopic measurements were carried out using a Bruker-600 NMR at 600 MHz with tetramethysilane (TMS) as internal reference. Electrospray ionization (ESI) mass spectra were performed on a Bruker MicroToF ESI LC-MS System in positive-ion mode. The steady-state absorption spectra were obtained with a ThermoFisher Evolution 220 UV-Vis spectrophotometer in 1 cm path length quartz cells. Fluorescence spectra were recorded using spectrophotometer (SPEX FluoroLog-3). Quantum yield in DMSO was measured relative to the fluorescence of Rhodamine B (Φ=0.65) in ethanol or quinine sulfate (Φ=0.55) in 0.5 M·L^−1 H2SO4. FT-IR spectrum was taken on a PerkinElmer Spectrum 100 FT-IR Spectrometers. Confocal fluorescent images of living cells were performed using Nikon A1R-si Laser Scanning Confocal Microscope (Japan), equipped with lasers of 405/488/561/638 nm. STORM images were performed on a NSTORM (Nikon, Japan), featuring a CFI Apo TIRF 100× oil objective (NA 1.49) on an inverted Nikon Ti Eclipse microscope with a quad cube filter (Chroma, zt405/488/561/640 m-TRF), piezo stage, and Perfect Focus System (Nikon) for Z-stability. Light source are hand-held UV lamp, BlueView Transilluminator (470 nm centred, Vernier), Prior Lumen200 with 615/30 filter and 850 LED (Mouser Electronics).

Data set [2] in a line: Fluorescence quantum yield determination. The data set is classed as physicochemical. As to conditions: DMSO; reference rhodamine B in ethanol or quinine sulfate in 0.5 M H2SO4. The procedure:
as §1
Quantum yields were measured with Rhodamine B as reference (Φ=0.65) or quinine sulfate (Φ=0.55) in 0.5 M H2SO4. Fluorescence measurements were performed in 1 cm quartz cells with 5 μM samples in DMSO on spectrophotometer (SPEX FluoroLog-3) (slits 5×5). The fluorescence quantum yield, Φ (sample), were calculated according to equation as following:
[formula] Φ: quantum yield; I: integrated emission intensity; OD: optical density at the excitation wavelength; d: refractive index of solvents, dDMSO=1.478; dethanol=1.36; dwater=1.33.

In another data set the test system is 3T3-L1 cells. In words: CCK-8 assay (cytotoxicity). The settings on record: 4 μM, 24 hours, Cell Counting Kit-8. The data set is classed as cell-based. How it is done: Before testing the utility of thio-caged fluorophores for investigating biological systems, the cytotoxicity of SNile Red in adipocytes was evaluated using Cell Counting Kit-8. At a concentration of 4 μM SNile Red, 90% of 3T3-L1 cells remained viable even after 24 hours (FIG. 10). Thio-caged dyes were then used to obtain subcellular structural data via fluorescence imaging of adipocytes. Nile Red and BODIPY are the fluorescent dyes most commonly used for lipid imaging (Corsaro and Pistara, 1998, Spiller et al., 1998, Tang et al., 2013). Confocal laser scanning microscopy (CLSM) was used to determine the specificity of SNile Red localization in adipocytes differentiated from 3T3-L1 cells. For colocalization studies, adipocytes were stained with 2 μM SNile Red and 100 nM BODIPY 493/503 for 10 mins.
3T3-L1 cells were seeded in flat-bottomed 96-well plates, 1×10^4 cells per well, with 200 μL complete culture media for 24 h. […] After 2 hours, the absorbance at 450 nm was read by 96-well plates reader. The viability of […] cells was calculated by the following equation: CV=(As−Ab)/(Ac−Ab)×100%
CV stands for the viability of cells, As, Ac and Ab stand for the absorbance of cells containing SNile Red cell control (0 μM SNile Red) and blank control (wells containing neither cells nor SNile Red).
On the technique in general: Tetrazolium assays rely on reduction of a dye to a coloured formazan, in cell work by metabolically active cells.

For data set [3], the system named is differentiated 3T3-L1 adipocytes. In words: Photoactivation and photobleaching in living adipocytes (CLSM). The class given is cell-based. The source says: Super-resolution imaging based on sequential imaging of a specific region of labeled tissue or cell culture relies on the ability to modulate the fluorescence of fluorophores between dark and bright states (Bates et al., 2007, Sengupta et al., 2014). […] Furthermore, the photoactivation of SNile Red can be achieved using visible light, affording lower phototoxicity and better tissue penetration than use of UV light. […] A 488 nm laser was utilized to activate SNile Red, while a 561 nm laser was used for photobleaching. […] Following irradiation with the 488-nm laser for 80 s, a five-fold increase of fluorescence intensity was detected. Subsequently, photobleaching was performed in the same cells using the 561-nm laser. As shown in FIGS. 13B & 13D, the fluorescence intensity decayed to 10% of its maximum within 360 s continuous scanning. This photoswitching flexibility holds promise for SNile Red utilization in further photoactivatable localization microscopy (PALM) studies. Next, the utility of SNile Red for performing super-resolution imaging of lipid droplets was explored. […] Compared to the conventional widefield fluorescence image (FIG. 13B) and Differential interference contrast (DIC) image (FIGS. 13A-B), the PALM reconstruction outlines a pair of lipid droplets with a resolution beyond the optical diffraction limit (FIGS. 13B &13C). […]

In data set [1], `CCN(CC)c1ccc2nc3c4ccccc4c(=S)cc-3oc2c1` [SNile Red] yielded a λem of 616 nm. For the same molecule, the “ø (fluorescence quantum yield)” value in data set [2] was less than 0.001. Further, the cells remaining viable in the data set with 3T3-L1 cells is reported as 90%. Further, the “fluorescence intensity after photobleaching, of its maximum” value in data set [3] (561-nm laser, within 360 s continuous scanning) was 10%. Moreover, the “increase of fluorescence intensity in cells” value in data set [3] (irradiation with 488-nm laser for 80 s) is recorded as “five-fold”.
